# Test results from PMC10509173, “Deep learning driven de novo drug design based on gastric proton pump structures” (Communications Biology, 2023).
# Values joined by “and” are separate entries in the source; they are usually repeats but may differ in a detail not shown here. Identical values can stand only once.
# Target: H+,K+-ATPase (Sus scrofa, UniProt P19156)
# Assay: Dose-dependent inhibition of H+,K+-ATPase activity, membrane fractions
# Details: for H+,K+-ATPase activity, raw data of dose-dependent inhibition: single replicate values
# [1] = [PCAB] -3.30103 (log, unit not given)
# [2] = [PCAB] -3.52288 (log, unit not given)
# [3] = [PCAB] -4 (log, unit not given)
# [4] = [PCAB] -4.30103 (log, unit not given)
# [5] = [PCAB] -4.52288 (log, unit not given)
# [6] = [PCAB] -5 (log, unit not given)
# [7] = [PCAB] -5.52288 (log, unit not given)
# [8] = [PCAB] -6 (log, unit not given)
# [9] = [PCAB] -6.30103 (log, unit not given)
# [10] = [PCAB] -7 (log, unit not given)
# [11] = [PCAB] -8 (log, unit not given)
# [12] = [PCAB] -11 (log, unit not given; possibly placeholder for no compound)
# Chain of H+,K+-ATPase (P19156 2-1034 limits assumed): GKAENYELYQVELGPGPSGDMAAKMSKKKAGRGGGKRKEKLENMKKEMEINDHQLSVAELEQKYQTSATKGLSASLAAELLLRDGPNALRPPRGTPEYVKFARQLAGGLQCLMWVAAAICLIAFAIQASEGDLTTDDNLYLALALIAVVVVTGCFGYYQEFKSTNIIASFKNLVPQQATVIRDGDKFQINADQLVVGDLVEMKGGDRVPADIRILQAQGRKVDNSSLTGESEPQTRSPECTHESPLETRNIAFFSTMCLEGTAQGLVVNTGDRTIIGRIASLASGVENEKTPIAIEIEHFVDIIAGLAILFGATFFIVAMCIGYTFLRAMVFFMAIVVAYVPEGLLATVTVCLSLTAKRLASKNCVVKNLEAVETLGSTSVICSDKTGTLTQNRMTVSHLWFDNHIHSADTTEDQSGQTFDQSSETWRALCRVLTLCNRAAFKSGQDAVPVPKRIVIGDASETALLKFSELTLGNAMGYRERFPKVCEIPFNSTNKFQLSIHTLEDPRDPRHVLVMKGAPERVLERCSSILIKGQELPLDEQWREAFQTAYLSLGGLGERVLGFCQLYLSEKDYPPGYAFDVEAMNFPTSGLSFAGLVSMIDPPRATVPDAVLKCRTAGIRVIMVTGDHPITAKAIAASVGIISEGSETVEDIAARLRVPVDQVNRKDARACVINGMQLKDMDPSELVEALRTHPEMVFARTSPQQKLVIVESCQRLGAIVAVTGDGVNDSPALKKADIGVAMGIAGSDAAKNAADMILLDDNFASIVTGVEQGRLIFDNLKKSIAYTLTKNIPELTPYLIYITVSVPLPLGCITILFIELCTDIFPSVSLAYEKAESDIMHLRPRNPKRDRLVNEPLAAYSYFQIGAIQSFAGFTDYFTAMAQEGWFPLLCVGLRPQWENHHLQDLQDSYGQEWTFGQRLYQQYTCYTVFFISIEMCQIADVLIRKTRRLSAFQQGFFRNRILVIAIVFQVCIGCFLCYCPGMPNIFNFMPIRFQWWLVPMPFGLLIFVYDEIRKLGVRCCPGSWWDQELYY
# Chain of H+,K+-ATPase (P18434 whole entry partner): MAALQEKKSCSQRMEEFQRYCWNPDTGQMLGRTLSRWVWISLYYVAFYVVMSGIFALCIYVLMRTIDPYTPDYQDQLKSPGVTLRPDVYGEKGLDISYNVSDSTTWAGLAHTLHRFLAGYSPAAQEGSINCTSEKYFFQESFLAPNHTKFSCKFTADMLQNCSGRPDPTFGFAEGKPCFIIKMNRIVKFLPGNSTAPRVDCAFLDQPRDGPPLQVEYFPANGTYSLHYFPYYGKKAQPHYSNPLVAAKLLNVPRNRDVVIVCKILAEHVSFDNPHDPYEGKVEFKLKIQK
IC50,SMILES,"H+,K+-ATPase activity, raw data of dose-dependent inhibition [1]","H+,K+-ATPase activity, raw data of dose-dependent inhibition [2]","H+,K+-ATPase activity, raw data of dose-dependent inhibition [3]","H+,K+-ATPase activity, raw data of dose-dependent inhibition [4]","H+,K+-ATPase activity, raw data of dose-dependent inhibition [5]","H+,K+-ATPase activity, raw data of dose-dependent inhibition [6]","H+,K+-ATPase activity, raw data of dose-dependent inhibition [7]","H+,K+-ATPase activity, raw data of dose-dependent inhibition [8]","H+,K+-ATPase activity, raw data of dose-dependent inhibition [9]","H+,K+-ATPase activity, raw data of dose-dependent inhibition [10]","H+,K+-ATPase activity, raw data of dose-dependent inhibition [11]","H+,K+-ATPase activity, raw data of dose-dependent inhibition [12]",other results
3.2 ± 0.2 µM,CNCc1ccc(OCc2cc(Cl)ccc2OCc2ccc(Cl)cc2)c(Cl)c1 [DQ-07],0.27 and 0.6 and 3.27 and 8.56 and 2.84 and 6.16,-0.35 and -0.17 and 2.58 and 2.95 and 2.71 and 3.29,-1.84 and -1.63 and 1.31 and 1.18 and 1.05 and 1.62,-1.84 and -1.6 and 2.69 and 2.52 and 2.83 and 2.8,-1.24 and -1.47 and 3.31 and 3.19 and 3.75 and 3.57,4.55 and 4.67 and 12.66 and 12.06 and 13.24 and 12.08,45.69 and 44.11 and 51.61 and 59.03 and 63.14 and 61.87,84.95 (2×) and 82.82 and 90.61 and 90.08 and 95.69,90.87 and 90.7 and 95.03 and 96.7 and 92.33 and 94.31,96.69 and 96.52 and 102.14 and 98.38 and 97.9 and 99.91,96.57 and 99.63 and 102.72 and 99.81 and 97.87 and 101.66,100.45 and 97.72 and 103.9 and 100.73 and 98.44 and 100.87,
0.28 ± 0.02 µM,CNCc1ccc(OCc2ccccc2OCc2ccc(Cl)cc2)cc1 [DQ-21],-1.36 and -1 and -1.49 and 3.72 and -1.45 and 1.58,0.39 and 0.54 and 0.08 and 0.18 and 0.41 and 0.55,3.33 and 3.13 and 3.68 and 3.03 and 3.2 and 3.37,4.45 and 4.77 and 4.44 and 4.84 and 4.43 and 4.67,6.47 and 6.44 and 6.31 and 6.43 and 6.29 and 6.56,7.76 and 7.75 and 7.99 (2×) and 7.89 and 7.77,11.96 and 12.26 and 11.83 and 11.89 and 11.45 and 12.14,23.55 and 22.68 and 22.58 and 21.83 and 22.75 and 23.52,36.33 and 33.31 and 34.67 and 35.15 and 34.9 and 34.74,76.22 and 75.51 and 71.53 and 74.65 and 69.37,101.03 and 99.43 and 98.88 and 100.2 and 98.66 and 98.58,102.52 and 101.98 and 100.28 and 101.48 and 100.07 and 102.84,
292 ± 67 µM,OCc1ccc(OCc2ccccc2OCc2ccccc2)cc1 [DQ-10],43.38 and 44.41 and 45.92 and 45.13 and 45.42 and 45.93,45.74 and 44.58 and 47.45 and 47.39 and 47.18 and 50.77,56.05 and 53.52 and 55.98 and 54.18 and 54.88 and 57.9,76.31 and 75.72 and 105.39 and 105.73 and 101.62 and 104.74,93.17 and 93.5 and 97.58 and 97.31 and 105.67 and 98.13,105.05 and 103.17 and 107.45 and 104.86 and 105.64 and 102,97.45 and 97.17 and 101.99 and 103.63 and 102.59 and 100.01,100.27 and 101.99 and 106.56 and 102.96 and 101.68 and 100.85,96.05 and 88 and 94.05 and 95.4 and 97.95 and 97.13,93.18 and 94.04 and 98.08 and 97.4 and 96.62 and 95.63,97.94 and 95.96 and 97.5 and 99.04 and 99.69 and 102.43,97.84 and 98.7 and 100.06 and 101.42 and 100.78 and 96,

# The next lines start with the compound.
SMILES,IC50,"H+,K+-ATPase activity, raw data of dose-dependent inhibition [1]","H+,K+-ATPase activity, raw data of dose-dependent inhibition [2]","H+,K+-ATPase activity, raw data of dose-dependent inhibition [3]","H+,K+-ATPase activity, raw data of dose-dependent inhibition [4]","H+,K+-ATPase activity, raw data of dose-dependent inhibition [5]","H+,K+-ATPase activity, raw data of dose-dependent inhibition [6]","H+,K+-ATPase activity, raw data of dose-dependent inhibition [7]","H+,K+-ATPase activity, raw data of dose-dependent inhibition [8]","H+,K+-ATPase activity, raw data of dose-dependent inhibition [9]","H+,K+-ATPase activity, raw data of dose-dependent inhibition [10]","H+,K+-ATPase activity, raw data of dose-dependent inhibition [11]","H+,K+-ATPase activity, raw data of dose-dependent inhibition [12]",other results
CNCC#CCOCc1cc(Cl)ccc1-c1ccc(Cl)c(F)c1 [DQ-04],33.9 ± 3.8 µM,0.25 and -0.25 and -0.38 and 0.38 and -0.3 and -3.39,1.96 and 3.36 and 3.54 and 3.3 and 3.08 and 0.78,36.71 and 36.26 and 38.13 and 35.18 and 35.01 and 32.77,44 and 42.16 and 21.74 and 21.63 and 20.87 and 17.27,54.64 and 55.71 and 47.64 and 52.61 and 61.59 and 63.39,84.91 and 81.14 and 76.84 and 80.91 and 85.5 and 81.75,98.14 and 98.72 and 86.17 and 97.35 and 92.86 and 93.01,100.43 and 99.64 (2×) and 95.5 and 94.06 and 98.22,97.37 and 99.94 and 104.98 and 87.87 and 104.85 and 101.28,98.23 and 101.36 and 99.76 and 99.57 and 100.69 and 98.11,101.57 and 100.61 and 99.59 and 102.17 and 101.49 and 97.6,101.41 and 100.27 and 102.04 and 101.19 and 98.33 and 99.11,
CNCC#CCn1ccc2cccc(C#Cc3ccc(C)cc3)c21 [DQ-15],49.5 ± 4.9 µM,-1.23 and -0.26 and -1.44 and 5.07 and -1.8 and 2.8,9.09 and 3.72 and 0.29 and -0.76 and -0.99 and -0.84,11.93 and 13.25 and 13.98 and 12.44 and 11.99,53.33 and 67.11 and 32 and 29.38 and 36.06 and 36.79,62.91 and 87.02 and 102.29 and 102.11 and 98.15 and 100.59,104.78 and 109.76 and 109.66 and 114.82 and 111.02 and 110.28,106.28 and 113.44 and 111.13 and 112.65 and 113.7 and 115.05,99.17 and 105.14 and 103.4 and 101.49 and 105.23 and 103.02,96.59 and 101.3 and 102.53 and 104.37 and 103.52 and 105.02,93.78 and 100.85 and 99.97 and 100.06 and 104.3 and 100.32,98.75 and 101.8 and 99.85 and 100.74 and 97.88 and 98.55,102.57 and 105.77 and 99.66 and 98.21 and 98.11 and 102.51,
CNCC#CCn1ccnc1NC(=O)c1ccccc1 [DQ-09],> 2000 µM,,,,,,,,,,,,99.26 and 98.65 and 101.5 and 98.45 and 98.97 and 101.13,"H+,K+-ATPase activity, raw data of dose-dependent inhibition ([PCAB] -3.455 (log, unit not given)): 63.11 and 66.04 and 91.33 and 94.1 and 93.4 and 93.07; H+,K+-ATPase activity, raw data of dose-dependent inhibition ([PCAB] -3.67685 (log, unit not given)): 81.52 and 80.18 and 94.54 and 95.44 and 96.5 and 95.18; H+,K+-ATPase activity, raw data of dose-dependent inhibition ([PCAB] -4.15397 (log, unit not given)): 92.95 and 94.76 and 92.15 and 93.44 and 92.03 and 93.77; H+,K+-ATPase activity, raw data of dose-dependent inhibition ([PCAB] -4.455 (log, unit not given)): 99 and 99.88 and 97.42 and 97.61 and 95.39 and 91.33; H+,K+-ATPase activity, raw data of dose-dependent inhibition ([PCAB] -4.67685 (log, unit not given)): 97.65 and 97.31 and 107.67 and 103.09 and 98.87 and 105.02; H+,K+-ATPase activity, raw data of dose-dependent inhibition ([PCAB] -5.15397 (log, unit not given)): 99.93 and 96.29 and 97.51 and 98.34 and 88.34 and 93.86; H+,K+-ATPase activity, raw data of dose-dependent inhibition ([PCAB] -5.67685 (log, unit not given)): 101.49 and 99.52 and 93.88 and 106.02 and 103.98 and 106.05; H+,K+-ATPase activity, raw data of dose-dependent inhibition ([PCAB] -6.15397 (log, unit not given)): 99.11 and 99.53 and 98.71 and 99.47 and 95.43 and 99.9; H+,K+-ATPase activity, raw data of dose-dependent inhibition ([PCAB] -7.00046 (log, unit not given)): 100.13 and 101.44 and 98.87 and 102.62 and 97 and 100.92; H+,K+-ATPase activity, raw data of dose-dependent inhibition ([PCAB] -7.15397 (log, unit not given)): 100.4 and 99.7 and 97.72 and 99.58 and 95.86 and 98.79; H+,K+-ATPase activity, raw data of dose-dependent inhibition ([PCAB] -8.15397 (log, unit not given)): 99.08 and 99.65 and 97.54 and 97.72 and 99.14 and 96.06"
CNCC#CCn1ccc2cccc(C#Cc3cccc(Cl)c3)c21 [DQ-16],89.4 ± 13.5 µM,24.42 and 42.17,44.41 and 66.92,87.71 and 67.55,103.26 and 71.7 and 101.95 and 107.11 and 107.49 and 103.62,107.4 and 104.96 and 100.44 and 100.8 and 99.65 and 99.6,105.07 and 103.28 and 102.18 and 95.06 and 104.24 and 100.65,112.46 and 113.5 and 115.83 and 115.26 and 112.62 and 114.01,106.69 and 106.05 and 103.52 and 103.99 and 105.16 and 107.1,101.16 and 99.6 and 102.96 and 104.58 and 100.87 and 100.34,95.95 and 99.26 and 100.97 and 100.31 and 101.14 and 100.94,95.83 and 94.95 and 90.34 and 101.71 and 99.53 and 101.3,95.82 and 93.84 and 98.4 and 100.56 and 99.28 and 103.27,
